Laboratory results from US7138361B2, “Herbicidal heterocycles” (E. I. du Pont de Nemours and Company, priority 2000, dated 2006).

Legend:
Type in all cases: in vivo
[1] = tested on: Sunflower; test: Test C preemergence; details: Rate 62 g/ha, scale 0 to 100
[2] = tested on: Sunflower; test: Test C preemergence; details: Rate 500 g/ha, visual evaluation after 12 to 14 days
[3] = tested on: Sunflower; test: Test C preemergence; details: Rate 250 g/ha, scale 0 to 100, 0 no effect, 100 complete control
[4] = tested on: johnsongrass (Sorghum halepense); test: Test C postemergence
Summary of the method: (§1)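 Seeds are planted and treated before emergence; for the postemergence test, plants at 1- to 4-leaf stage (2–18 cm) receive the same formulation, a solvent blend containing surfactant. Plants stay in the greenhouse 12–14 days, then response is scored visually from 0 (none) to 100 (complete control).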

[5] = tested on: pigweed (Amaranthus retroflexus); test: Test C postemergence
Summary of the method: as §1

[6] = tested on: woolly cupgrass (Eriochloa villosa); test: Test C postemergence
Summary of the method: as §1

[7] = tested on: soybean (Glycine max); test: Test C postemergence
Summary of the method: as §1

[8] = tested on: bermudagrass (Cynodon dactylon); test: Test C postemergence
Summary of the method: as §1

[9] = tested on: giant foxtail (Setaria faberii); test: Test C postemergence
Summary of the method: as §1

[10] = tested on: kochia (Kochia scoparia); test: Test C postemergence
Summary of the method: as §1

[11] = tested on: cocklebur (Xanthium strumarium); test: Test C postemergence
Summary of the method: as §1

[12] = tested on: morningglory (Ipomoea hederacea); test: Test C postemergence
Summary of the method: as §1

[13] = tested on: lambsquarters (Chenopodium album); test: Test C postemergence
Summary of the method: as §1

[14] = tested on: goosegrass (Eleusine indica); test: Test C postemergence
Summary of the method: as §1

[15] = tested on: crabgrass (Digitaria sanguinalis); test: Test C postemergence
Summary of the method: as §1

[16] = tested on: yellow nutsedge (Cyperus esculentus); test: Test C postemergence
Summary of the method: as §1

[17] = tested on: corn (Zea mays); test: Test C postemergence
Summary of the method: as §1

[18] = tested on: velvetleaf (Abutilon theophrasti); test: Test C postemergence
Summary of the method: as §1

[19] = tested on: Surinam grass (Brachiaria decumbens); test: Test C postemergence
Summary of the method: as §1

[20] = Rate 500 g/ha, scale 0 to 100 (0 no effect, 100 complete control)
[21] = Rate 250 g/ha, scale 0 to 100 (0 no effect, 100 complete control)
[22] = Rate 125 g/ha, scale 0 to 100, 0 no effect, 100 complete control

CCC(C)c1ccn(C2OCN(c3cccc(OC(F)F)c3)C2=O)n1 (centres unmarked) [Compound 134]
0: Plant response rating, Sunflower [1] | Plant response rating, Sunflower [3]
20: Plant response rating (0 to 100), Sunflower [2]

CCC(CC)c1ccn(C2OCN(c3cccc(OC(F)F)c3)C2=O)n1 (centres unmarked) [Compound 131]
60: Plant response rating, Bermudagrass [8, 22] | Plant response rating, Kochia ([10]; Rate 62 g/ha, scale 0 to 100)
20: Plant response rating, Johnsongrass ([4]; rate not given, scale 0 to 100) | Plant response rating, Pigweed ([5]; Rate 62 g/ha, scale 0 to 100) | Plant response rating, Soybean ([7]; Rate 62 g/ha, scale 0 to 100) | Plant response rating, Bermudagrass ([8]; Rate 62 g/ha, scale 0 to 100) | Plant response rating, Foxtail, Giant ([9]; Rate 62 g/ha, scale 0 to 100) | Plant response rating, Corn [17, 21] | Plant response rating, Velvetleaf ([18]; Rate 62 g/ha, scale 0 to 100) | Plant response rating, Velvetleaf [18, 21] | Plant response rating, Velvetleaf ([18]; scale 0 to 100) | Plant response rating, Sunflower [1] | Plant response rating (0 to 100), Sunflower [2] | Plant response rating, Sunflower [3]
50: Plant response rating, Soybean [7, 20] | Plant response rating, Foxtail, Giant [9, 21]
100: Plant response rating, Pigweed [5, 20] | Plant response rating, Morningglory [12, 20] | Plant response rating, Lambsquarters ([13]; Rate 62 g/ha, scale 0 to 100) | Plant response rating, Lambsquarters [13, 21] | Plant response rating, Lambsquarters [13, 20]
10: Plant response rating, Cupgrass, Woolly ([6]; Rate 62 g/ha, scale 0 to 100) | Plant response rating, Corn ([17]; scale 0 to 100)
40: Plant response rating, Goosegrass ([14]; Rate 62 g/ha, scale 0 to 100) | Plant response rating, Surinam grass [19, 21] | Plant response rating, Surinam grass [19, 20]
70: Plant response rating, Cupgrass, Woolly [6, 21] | Plant response rating, Goosegrass [14, 21]
0: Plant response rating, Johnsongrass ([4]; Rate 62 g/ha, scale 0 to 100) | Plant response rating, Cocklebur ([11]; Rate 62 g/ha, scale 0 to 100) | Plant response rating, Nutsedge ([16]; Rate 62 g/ha, scale 0 to 100) | Plant response rating, Nutsedge [16, 21] | Plant response rating, Nutsedge [16, 20] | Plant response rating, Corn ([17]; Rate 62 g/ha, scale 0 to 100) | Plant response rating, Surinam grass ([19]; Rate 62 g/ha, scale 0 to 100)
30: Plant response rating, Johnsongrass [4, 20] | Plant response rating, Soybean [7, 21] | Plant response rating, Cocklebur [11, 21] | Plant response rating, Cocklebur [11, 20] | Plant response rating, Corn [17, 20] | Plant response rating, Velvetleaf [18, 20]
90: Plant response rating, Pigweed [5, 21] | Plant response rating, Bermudagrass [8, 21] | Plant response rating, Bermudagrass [8, 20] | Plant response rating, Kochia [10, 20] | Plant response rating, Crabgrass [15, 20]
80: Plant response rating, Cupgrass, Woolly [6, 20] | Plant response rating, Foxtail, Giant [9, 20] | Plant response rating, Kochia [10, 21] | Plant response rating, Morningglory [12, 21] | Plant response rating, Goosegrass [14, 20] | Plant response rating, Crabgrass [15, 21]

CC(C)(C)c1ccn(C2OCN(c3cccc(OC(F)F)c3)C2=O)n1 (centres unmarked) [Compound 133]
0: Plant response rating, Sunflower [1] | Plant response rating (0 to 100), Sunflower [2] | Plant response rating, Sunflower [3]

CCC(CC)c1ccn(C2CCN(c3ccc(F)c(C(F)(F)F)c3)C2=O)n1 (centres unmarked) [Compound 144]
70: Plant response rating (0 to 100), Sunflower [2]
40: Plant response rating, Sunflower [1] | Plant response rating, Sunflower [3]

CCC(C)c1ccn(C2CCN(c3ccc(Cl)c(OC)c3)C2=O)n1 (centres unmarked) [Compound 119]
30: Plant response rating, Goosegrass [14, 20] | Plant response rating, Crabgrass ([15]; Rate 62 g/ha, scale 0 to 100) | Plant response rating, Crabgrass [15, 21]
50: Plant response rating, Cocklebur ([11]; Rate 62 g/ha, scale 0 to 100) | Plant response rating, Corn [17, 20]
100: Plant response rating, Morningglory [12, 21] | Plant response rating, Lambsquarters [13, 20] | Plant response rating (0 to 100), Sunflower [2]
10: Plant response rating, Velvetleaf [18, 21]
90: Plant response rating, Pigweed [5, 21] | Plant response rating, Soybean [7, 20] | Plant response rating, Kochia [10, 21] | Plant response rating, Kochia [10, 20] | Plant response rating, Lambsquarters ([13]; Rate 62 g/ha, scale 0 to 100) | Plant response rating, Lambsquarters [13, 21]
80: Plant response rating, Soybean [7, 21] | Plant response rating, Foxtail, Giant [9, 20] | Plant response rating, Morningglory ([12]; Rate 62 g/ha, scale 0 to 100)
60: Plant response rating, Kochia ([10]; Rate 62 g/ha, scale 0 to 100) | Plant response rating, Crabgrass [15, 20]
20: Plant response rating, Cupgrass, Woolly [6, 20] | Plant response rating, Corn ([17]; Rate 62 g/ha, scale 0 to 100) | Plant response rating, Corn [17, 21] | Plant response rating, Corn ([17]; scale 0 to 100) | Plant response rating, Velvetleaf [18, 20] | Plant response rating, Surinam grass [19, 20]
0: Plant response rating, Johnsongrass ([4]; Rate 62 g/ha, scale 0 to 100) | Plant response rating, Johnsongrass [4, 21] | Plant response rating, Johnsongrass [4, 20] | Plant response rating, Johnsongrass ([4]; rate not given, scale 0 to 100) | Plant response rating, Cupgrass, Woolly ([6]; Rate 62 g/ha, scale 0 to 100) | Plant response rating, Cupgrass, Woolly [6, 21] | Plant response rating, Bermudagrass ([8]; Rate 62 g/ha, scale 0 to 100) | Plant response rating, Bermudagrass [8, 22] | Plant response rating, Bermudagrass [8, 21] | Plant response rating, Bermudagrass [8, 20] | Plant response rating, Foxtail, Giant ([9]; Rate 62 g/ha, scale 0 to 100) | Plant response rating, Foxtail, Giant [9, 21] | Plant response rating, Goosegrass ([14]; Rate 62 g/ha, scale 0 to 100) | Plant response rating, Goosegrass [14, 21] | Plant response rating, Nutsedge ([16]; Rate 62 g/ha, scale 0 to 100) | Plant response rating, Nutsedge [16, 21] | Plant response rating, Nutsedge [16, 20] | Plant response rating, Velvetleaf ([18]; Rate 62 g/ha, scale 0 to 100) | Plant response rating, Velvetleaf ([18]; scale 0 to 100) | Plant response rating, Surinam grass ([19]; Rate 62 g/ha, scale 0 to 100) | Plant response rating, Surinam grass [19, 22] | Plant response rating, Surinam grass [19, 21]
40: Plant response rating, Pigweed ([5]; Rate 62 g/ha, scale 0 to 100) | Plant response rating, Soybean ([7]; Rate 62 g/ha, scale 0 to 100) | Plant response rating, Sunflower [1] | Plant response rating, Sunflower [3]
70: Plant response rating, Cocklebur [11, 21]

CCC(C)c1ccn(C2CCN(c3ccc(F)c(C(F)(F)F)c3)C2=O)n1 (centres unmarked) [Compound 145]
0: Plant response rating, Sunflower [1]
50: Plant response rating (0 to 100), Sunflower [2] | Plant response rating, Sunflower [3]

CCOc1cccc(N2CCC(n3ccc(C(C)(C)C)n3)C2=O)c1 (centres unmarked) [Compound 130]
70: Plant response rating (0 to 100), Sunflower [2] | Plant response rating, Sunflower [3]
60: Plant response rating, Sunflower [1]

CCCC(C)c1ccn(C2OCN(c3cccc(OC(F)F)c3)C2=O)n1 (centres unmarked) [Compound 132]
0: Plant response rating, Sunflower [1]
20: Plant response rating, Sunflower [3]

CCC(CC)c1ccn(C2CCN(c3ccc(Cl)c(OC)c3)C2=O)n1 (centres unmarked) [Compound 118]
70: Plant response rating (0 to 100), Sunflower [2]
0: Plant response rating, Sunflower [1]
60: Plant response rating, Sunflower [3]
